Earlier results on two compounds are cited in patent US20220347165A1, “EFFERVESCENT ORAL COMPOSITION” (NICOVENTURES TRADING LIMITED, priority 2021, published 2022).

For data set [1] the following is noted: when isolated; isomerizes to trans-bixin.

Turning to `CC(/C=C/C=C(C)/C=C/C(=O)O)=C\C=C\C=C(C)\C=C\C=C(C)\C=C\C(=O)O` (stereo in doubt) [norbixin, (2E,4E,6E,8E,10E,12E,14E,16E,18E)-4,8,13,17-tetramethylicosa-2,4,6,8,10,12,14,16,18-nonaenedioic acid], the solubility in water result was “water soluble”.
With `COC(=O)/C=C/C(C)=C\C=C\C(C)=C\C=C\C=C(C)\C=C\C=C(C)\C=C\C(=O)O` [bixin, (2E,4E,6E,8E,10E,12E,14E,16Z,18E)-20-methoxy-4,8,13,17-tetramethyl-20-oxoicosa-2,4,6,8,10,12,14,16,18-nonaenoic acid], the solubility in water result was “insoluble in water”. In addition, the chemical stability result in data set [1] is “chemically unstable when isolated”. Besides, the “solubility in fats and alcohols” value (fats and alcohols) is “soluble in fats and alcohols”.
